For 19 compounds, EC50 and Emax results are on record in patent US9834542B2, “LXR modulators” (BRISTOL-MYERS SQUIBB COMPANY, priority 2013, dated 2017).

The test has as its target T1, LXRβ (Homo sapiens, UniProt P55055).
T1 construct: Co-transfection expression plasmids, comprising full-length LXRα (pCMX-h LXRα[…] or LXRβ (pCMX-hLXRβ)); expressed in transfected cells; host or cells: CV-1 African Green Monkey Kidney Cells
T1 sequence (P55055 1-460): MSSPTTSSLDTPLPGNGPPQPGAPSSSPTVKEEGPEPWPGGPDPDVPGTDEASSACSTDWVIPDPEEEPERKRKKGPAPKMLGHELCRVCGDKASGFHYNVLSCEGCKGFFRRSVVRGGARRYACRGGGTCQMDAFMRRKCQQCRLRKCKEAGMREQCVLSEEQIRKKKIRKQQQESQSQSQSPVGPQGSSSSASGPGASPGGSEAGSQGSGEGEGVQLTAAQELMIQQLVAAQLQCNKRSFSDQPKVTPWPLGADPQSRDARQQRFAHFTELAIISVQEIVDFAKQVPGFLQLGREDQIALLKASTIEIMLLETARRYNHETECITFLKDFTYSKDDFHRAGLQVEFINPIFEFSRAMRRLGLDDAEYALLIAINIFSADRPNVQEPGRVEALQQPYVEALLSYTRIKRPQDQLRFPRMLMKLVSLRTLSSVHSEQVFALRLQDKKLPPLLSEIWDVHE
T1 sequence (P19793 1-462 partner): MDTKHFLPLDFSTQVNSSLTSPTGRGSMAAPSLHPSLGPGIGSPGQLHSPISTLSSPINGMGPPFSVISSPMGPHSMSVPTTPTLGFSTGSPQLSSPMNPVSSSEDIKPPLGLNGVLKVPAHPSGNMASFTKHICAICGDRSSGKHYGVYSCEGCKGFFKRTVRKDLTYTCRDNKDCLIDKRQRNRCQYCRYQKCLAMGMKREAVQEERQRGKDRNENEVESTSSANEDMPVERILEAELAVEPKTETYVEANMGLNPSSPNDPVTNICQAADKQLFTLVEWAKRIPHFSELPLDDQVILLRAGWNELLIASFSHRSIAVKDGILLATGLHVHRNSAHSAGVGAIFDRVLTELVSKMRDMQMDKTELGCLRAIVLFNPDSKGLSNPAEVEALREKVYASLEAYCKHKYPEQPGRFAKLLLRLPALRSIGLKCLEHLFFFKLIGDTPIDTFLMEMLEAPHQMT
Kind of test: Co-transfection assay (LXRE luciferase reporter), LXRβ. The note with it: for EC50: CV-1 cells transfected with pCMX-hLXRβ and LXREx1-Tk-Luciferase, 20 hours incubation; for Emax: LXRβ co-transfection, relative to high control 1-(2,4-difluorobenzyl)-2-oxo-6-(4-phenoxyphenyl)-4-(trifluoromethyl)-1,2-dihydropyridine-3-carbonitrile, read-out: % Efficacy. In kind it is cell-based. The gist of the method:
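CV-1 cells transiently co-transfected with full-length human LXRβ (or LXRα), LXREx1-Tk-luciferase reporter and β-galactosidase control; compound added (10 μM final in single-point, 11-point ½-log curves, ≤0.5% DMSO) for 20 h at 37 °C. Luciferase read; EC50 from four-parameter fit, efficacy relative to reference agonist high control.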
(Reporter assays use an easily measured gene product as a stand-in for the process of interest.)

As for `Cc1nc(C(F)(F)F)cn1-c1ccc(-c2cc(F)c(CO)c(S(C)(=O)=O)c2)cc1-n1nncc1C(=O)c1ccc(C(F)(F)F)cc1` [Example 141, (1-{3′-fluoro-4′-(hydroxymethyl)-5′-(methylsulfonyl)-4-[2-methyl-4-(trifluoromethyl)-1H-imidazol-1-yl]biphenyl-3-yl}-1H-1,2,3-triazol-5-yl)[4-(trifluoromethyl)phenyl]meth-anone], a half-maximal effect (EC50) was put at 0.619 µM and the Emax was 106%.

As to `CCS(=O)(=O)c1cccc(-c2ccc(-n3cc(C(F)(F)F)nc3C)c(-n3nncc3C(F)(F)c3ccc(Cl)cc3)c2)c1` [Example 142, 5-[(4-chlorophenyl)(difluoro)methyl]-1-{3′-(ethylsulfonyl)-4-[2-methyl-4-(trifluoromethyl)-1H-imidazol-1-yl]biphenyl-3-yl}-1H-1,2,3-triazole], the EC50 was 0.205 µM and the Emax came out at 63%.

On to `CS(=O)(=O)c1cccc(-c2ccc(-n3cc(C(F)(F)F)nc3Cl)c(-n3nncc3-c3ccc(Cl)cc3Cl)c2)c1` [Example 143, 1-{4-[2-chloro-4-(trifluoromethyl)-1H-imidazol-1-yl]-3′-(methylsulfonyl)biphenyl-3-yl}-5-(2,4-dichlorophenyl)-1H-1,2,3-triazole], for which the EC50 was found to be 0.942 µM and the Emax came out at 98%.

`CS(=O)(=O)c1cc(-c2ccc(-n3cc(C(F)(F)F)nc3Cl)c(-n3nncc3-c3ccc(Cl)cc3)c2)cc(F)c1CO` [Example 144, {3′-[5-(4-chlorophenyl)-1H-1,2,3-triazol-1-yl]-4′-[2-chloro-4-(trifluoromethyl)-1H-imidazol-1-yl]-3-fluoro-5-(methylsulfonyl)biphenyl-4-yl}methanol]: the EC50 worked out at 0.11 µM and the Emax worked out at 98%.

For `CS(=O)(=O)c1cc(-c2ccc(-n3cc(C(F)(F)F)nc3Cl)c(-n3nncc3-c3ccc(Cl)cc3Cl)c2)cc(F)c1CO` [Example 145, {4′-[2-chloro-4-(trifluoromethyl)-1H-imidazol-1-yl]-3′-[5-(2,4-dichlorophenyl)-1H-1,2,3-triazol-1-yl]-3-fluoro-5-(methylsulfonyl)biphenyl-4-yl}methanol], the EC50 stood at 0.233 µM and the Emax came out at 110%.

On to `CS(=O)(=O)c1cccc(-c2ccc(-n3cc(C(F)(F)F)nc3Cl)c(-n3nncc3-c3ccc(OC(F)(F)F)cc3)c2)c1` [Example 146, 1-{4-[2-chloro-4-(trifluoromethyl)-1H-imidazol-1-yl]-3′-(methylsulfonyl)biphenyl-3-yl}-5-{4-[(trifluoromethyl)oxy]phenyl}-1H-1,2,3-triazole], for which the EC50 came out at 0.251 µM and the Emax came out at 112%.

Regarding `Cc1nc(Cl)cn1-c1ccc(-c2cc(F)c(CO)c(S(C)(=O)=O)c2)cc1-n1nncc1-c1ccc(OC(F)(F)F)cc1` [Example 147, [4′-(4-chloro-2-methyl-1H-imidazol-1-yl)-3-fluoro-5-(methylsulfonyl)-3′-(5-{4-[(trifluoromethyl)oxy]phenyl}-1H-1,2,3-triazol-1-yl)biphenyl-4-yl]methanol], the EC50 was 0.413 µM and the Emax came out at 76%.

`Cc1nc(Cl)cn1-c1ccc(-c2cc(F)c(CO)c(S(C)(=O)=O)c2)cc1-n1nncc1-c1ccc(Cl)cc1` [Example 148, [4′-(4-chloro-2-methyl-1H-imidazol-1-yl)-3′-[5-(4-chlorophenyl)-1H-1,2,3-triazol-1-yl]-3-fluoro-5-(methylsulfonyl)biphenyl-4-yl]methanol]: the EC50 was 0.447 µM and the Emax turned out to be 42%.

Regarding `Cc1nc(Cl)cn1-c1ccc(-c2cccc(S(C)(=O)=O)c2)cc1-n1nncc1-c1ccc(OC(F)(F)F)cc1` [Example 149, 1-[4-(4-chloro-2-methyl-1H-imidazol-1-yl)-3′-(methylsulfonyl)biphenyl-3-yl]-5-{4-[(trifluoromethyl)oxy]phenyl}-1H-1,2,3-triazole], it took 0.444 µM to reach a half-maximal effect (EC50) and the Emax was found to be 75%.

For the compound `Cc1nc(Cl)cn1-c1ccc(-c2cccc(S(C)(=O)=O)c2)cc1-n1nncc1-c1ccc(Cl)cc1` [Example 150, 1-[4-(4-chloro-2-methyl-1H-imidazol-1-yl)-3′-(methylsulfonyl)biphenyl-3-yl]-5-(4-chlorophenyl)-1H-1,2,3-triazole], the EC50 is 1.29 µM and the Emax came out at 56%.

For `Cc1nc(Cl)c(Cl)n1-c1ccc(-c2cccc(S(C)(=O)=O)c2)cc1-n1nncc1-c1ccc(OC(F)(F)F)cc1` [Example 151, 1-[4-(4,5-dichloro-2-methyl-1H-imidazol-1-yl)-3′-(methylsulfonyl)biphenyl-3-yl]-5-{4-[(trifluoromethyl)oxy]phenyl}-1H-1,2,3-triazole], the midpoint of the response, the EC50, lay at 0.214 µM and the Emax came out at 148%.

`Cc1nc(C(=O)NC(C)(C)C)cn1-c1ccc(-c2cccc(S(C)(=O)=O)c2)cc1-n1nncc1-c1ccc(OC(F)(F)F)cc1` [Example 152, N-(1,1-dimethylethyl)-2-methyl-1-[3′-(methylsulfonyl)-3-(5-{4-[(trifluoromethyl)oxy]phenyl}-1H-1,2,3-triazol-1-yl)biphenyl-4-yl]-1H-imidazole-4-carboxamide]: a half-maximal effect (EC50) was put at 1.23 µM and the Emax worked out at 49%.

As to `CNS(=O)(=O)c1cccc(-c2ccc(-n3cc(C(F)F)nc3C)c(-n3nncc3-c3ccc(OC(F)(F)F)cc3)c2)c1` [Example 154, 4′-[4-(difluoromethyl)-2-methyl-1H-imidazol-1-yl]-N-methyl-3′-(5-{4-[(trifluoromethyl)oxy]phenyl}-1H-1,2,3-triazol-1-yl)biphenyl-3-sulfonamide], the EC50 was found to be 0.527 µM and the Emax came to 91%.

With `Cc1nc(C(F)F)cn1-c1ccc(-c2cccc(S(=O)(=O)N(C)C)c2)cc1-n1nncc1-c1ccc(OC(F)(F)F)cc1` [Example 155, 4′-[4-(difluoromethyl)-2-methyl-1H-imidazol-1-yl]-N,N-dimethyl-3′-(5-{4-[(trifluoromethyl)oxy]phenyl}-1H-1,2,3-triazol-1-yl)biphenyl-3-sulfonamide], the EC50 came to 0.701 µM and the Emax worked out at 93%.

`Cc1nc(C(F)F)cn1-c1ccc(-c2cccc(C(C)(C)C(N)=O)c2)cc1-n1nncc1-c1ccc(OC(F)(F)F)cc1` [Example 156, 2-{4′-[4-(difluoromethyl)-2-methyl-1H-imidazol-1-yl]-3′-(5-{4-[(trifluoromethyl)oxy]phenyl}-1H-1,2,3-triazol-1-yl)biphenyl-3-yl}-2-methylpropanamide]: a half-maximal effect (EC50) was put at 1.64 µM and the Emax came out at 93%.

As to `CCS(=O)(=O)c1cccc(-c2ccc(-n3cc(C(F)F)nc3C)c(-n3nncc3-c3ccc(OC(F)(F)F)cc3)c2)c1` [Example 157, 1-{4-[4-(difluoromethyl)-2-methyl-1H-imidazol-1-yl]-3′-(ethylsulfonyl)biphenyl-3-yl}-5-{4-[(trifluoromethyl)oxy]phenyl}-1H-1,2,3-triazole], the EC50 came to 1.13 µM and the Emax is 104%.

With `Cc1nc(C(F)F)cn1-c1ccc(-c2cc(Cl)c(CO)c(S(C)(=O)=O)c2)cc1-n1nncc1-c1ccc(OC(F)(F)F)cc1` [Example 158, {3-chloro-4′-[4-(difluoromethyl)-2-methyl-1H-imidazol-1-yl]-5-(methylsulfonyl)-3′-(5-{4-[(trifluoromethyl)oxy]phenyl}-1H-1,2,3-triazol-1-yl)biphenyl-4-yl}methanol], the response was half-maximal at 1.41 µM (EC50) and the Emax was found to be 88%.

As to `Cc1nc(C(F)F)cn1-c1ccc(-c2ccc(CO)c(S(C)(=O)=O)c2)cc1-n1nncc1-c1ccc(OC(F)(F)F)cc1` [Example 159, {4′-[4-(difluoromethyl)-2-methyl-1H-imidazol-1-yl]-3-(methylsulfonyl)-3′-(5-{4-[(trifluoromethyl)oxy]phenyl}-1H-1,2,3-triazol-1-yl)biphenyl-4-yl}methanol], the EC50 came out at 0.783 µM and the Emax was 97%.

As to `Cc1nc(C(F)F)cn1-c1ccc(-c2cccc(S(C)(=O)=O)c2)cc1-n1nncc1-c1ccc(Cl)cc1` [Example 162, 5-(4-chlorophenyl)-1-{4-[4-(difluoromethyl)-2-methyl-1H-imidazol-1-yl]-3′-(methylsulfonyl)biphenyl-3-yl}-1H-1,2,3-triazole], it took 0.977 µM to reach a half-maximal effect (EC50) and the Emax was 65%.

What is called EC50 is the concentration needed to bring the measured effect to its halfway point. Low values mean greater potency, high ones weaker potency.
